Measurements taken from PubChem BioAssay (NCI).
“And” between values parts separate entries of the source, which are not always exact repeats. Identical values can stand only once.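 A five-concentration, 48-hour dose response in 96-well plates underlies each endpoint, interpolated linearly between surrounding concentrations. At the GI50, growth is halved. At the TGI there is no net growth.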

Columns and labels:
Experiment in all cases: NCI-60 cell line screen, 48 h
HL-60(TB) leukemia = tested on: HL-60(TB) leukemia
UACC-257 melanoma = tested on: UACC-257 melanoma
CCRF-CEM leukemia = tested on: CCRF-CEM leukemia
HT29 colon = tested on: HT29 colon
NCI-H23 lung = tested on: NCI-H23 lung
NCI-H226 lung = tested on: NCI-H226 lung
SF-295 CNS = tested on: SF-295 CNS
HOP-92 NSCLC = tested on: HOP-92 NSCLC
SF-268 CNS = tested on: SF-268 CNS
MOLT-4 leukemia = tested on: MOLT-4 leukemia

Structure (SMILES)	TGI (HL-60(TB) leukemia)	GI50 (UACC-257 melanoma)	TGI (UACC-257 melanoma)	TGI (CCRF-CEM leukemia)	GI50 (HT29 colon)	TGI (HT29 colon)	GI50 (NCI-H23 lung)	GI50 (NCI-H226 lung)	TGI (NCI-H226 lung)	GI50 (SF-295 CNS)	TGI (SF-295 CNS)	GI50 (HOP-92 NSCLC)	TGI (SF-268 CNS)	GI50 (MOLT-4 leukemia)	TGI (MOLT-4 leukemia)	TGI (NCI-H23 lung)	GI50 (HL-60(TB) leukemia)	TGI (HOP-92 NSCLC)	GI50 (CCRF-CEM leukemia)
C=C1CCCC(C)(C)[C@@H]1CC/C(C)=C/Cn1c2cccc(=O)c-2nc2ccccc21	0.354 µM	2.83 µM	9.02 µM and 4.68 µM	13 µM	3.82 µM	27.4 µM and 3.29 µM	5.39 µM	21.2 µM	> 100 µM and 21.6 µM	3.93 µM	26.9 µM and 4.16 µM	22.7 µM	3.71 µM	5.55 µM	70.7 µM and 9.78 µM	–	–	–	–
CC(C)(C)c1ccc(O)c(Br)c1	> 100 µM	–	> 100 µM	> 100 µM	–	> 100 µM	–	–	> 100 µM	–	> 100 µM	–	> 100 µM	–	> 100 µM	> 100 µM	–	–	–
COc1cccc(/C=N/[N-]C(N)=O)c1[O-].[Cu+2].[OH3+].c1cnc2c(c1)ccc1cccnc12	48.7 µM	–	34.5 µM	66.2 µM	–	75.5 µM	–	–	42.5 µM	–	51.2 µM	–	60.7 µM	–	> 100 µM	15.8 µM	20 µM	18.2 µM	–
O=c1oc2c(ccc3occc32)c(N2CCCCC2)c1-c1ccccc1	80.1 µM	–	–	> 59.5 µM	–	> 100 µM	–	> 100 µM	> 100 µM	–	> 100 µM	–	> 100 µM	–	> 31.7 µM	> 100 µM	–	> 100 µM	–
Fc1cc(C2=C[C@H](c3ccc4c(c3)OCO4)NC(=S)N2)c(Cl)cc1Cl	0.23 µM	–	83.6 µM	> 100 µM	–	> 100 µM	–	–	> 100 µM	–	> 100 µM	–	> 100 µM	–	> 100 µM	> 100 µM	–	> 100 µM	–
O=C(N/N=C\c1ccc([N+](=O)[O-])cc1)Nc1ccccc1	> 100 µM	–	> 100 µM	> 100 µM	–	> 100 µM	–	–	> 100 µM	–	> 100 µM	–	–	–	> 100 µM	> 100 µM	–	> 100 µM	–
CC(C)(C)OC(=O)N1C(C2=COc3ccccc3O2)=COc2cccnc21	–	–	3.92 µM	–	–	5.8 µM	–	–	4.31 µM	–	3.99 µM	–	3.93 µM	–	7 µM	3.25 µM	–	3.9 µM	–
NC(N)=NS(=O)(=O)c1ccc(Nc2c3ccccc3nc3c(C(=O)N4CCN(CCO)CC4)ccc(Cl)c23)cc1	> 100 µM	–	> 100 µM	> 100 µM	–	> 100 µM	–	–	> 100 µM	–	> 100 µM	–	> 100 µM	–	> 100 µM	> 100 µM	–	> 100 µM	–
Clc1ccc(NCc2nnc(COc3ccc(OCc4nnc(CNc5ccc(Cl)cc5)o4)c(Cl)c3)o2)cc1	27 µM	–	> 100 µM	44.8 µM	–	95.6 µM	–	–	> 100 µM	–	> 100 µM	–	> 100 µM	–	–	> 100 µM	–	83.5 µM	–
O=C(CSc1nc2ccc(Cl)cc2c(=O)n1-c1ccccc1)N=Nc1c(O)[nH]c2ccc(F)cc12	7.25 µM	–	10.6 µM	6.34 µM	–	3.96 µM	–	–	12.6 µM	–	14.9 µM	–	8.83 µM	–	5.56 µM	7.57 µM	–	8.51 µM	–
COc1cc(S(=O)(=O)N/N=C/C=C/c2ccccc2)c(OC)cc1NC(C)=O	> 100 µM	–	> 100 µM	> 100 µM	–	> 100 µM	–	–	–	–	> 100 µM	–	> 100 µM	–	–	> 100 µM	–	> 100 µM	–
COC(=O)c1c(O)ccc2c1c1c(n2Cc2ccccn2)C(=O)c2ccccc2C1	> 100 µM	–	> 100 µM	> 100 µM	–	> 100 µM	–	–	> 100 µM	–	> 100 µM	–	> 100 µM	–	> 100 µM	> 100 µM	–	–	–
Cc1cc(N2CCOCC2)nc(N(CCCNc2ccnc3cc(Cl)ccc23)Cc2ccc3c(c2)OCO3)n1	–	1.99 µM	3.48 µM	2.1 µM	1.34 µM	2.8 µM	–	–	–	–	–	1.56 µM	–	0.598 µM	2.97 µM	–	–	3.98 µM	0.355 µM
O=CC(O)C(O)C(O)COc1cc(CO)cc2c1C(=O)c1ccccc1C2=O (stereo not given)	> 100 µM	–	> 100 µM	> 100 µM	–	> 100 µM	–	–	> 100 µM	–	> 100 µM	–	> 100 µM	–	> 100 µM	> 100 µM	–	> 100 µM	–
CC(Br)C(=O)c1ccc2cc(Br)c3ccccc3c2c1 (stereo not given)	37.5 µM	–	31.5 µM	14.6 µM	–	31.8 µM	–	–	–	–	31.4 µM	–	32.4 µM	–	–	29.7 µM	–	30.8 µM	–
CC(C)=CCC/C(C)=C/CC/C(C)=C/[C@@H]1[C@@H](CO)[C@]1(C)CC/C=C(\C)CCC=C(C)C	–	–	> 100 µM	45.2 µM	–	> 100 µM	–	–	44.5 µM	–	> 100 µM	–	40.8 µM	–	> 100 µM	> 100 µM	–	38.2 µM	–
